From patent US20150105252A1, “SUBSTITUTED PYRAZOLES AS HERBICIDES” (E I DU PONT DE NEMOURS AND COMPANY, priority 2013, published 2015)

Columns and labels:
[1] = test system: velvetleaf; assay: Test C preemergence; type: in vivo, Abutilon theophrasti; settings: preemergence; for Plant response rating, Velvetleaf: 125 g ai/ha, scale 0 to 100, 0 = no effect, 100 = complete control
In short: (§1)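 Greenhouse pot test: preemergence application onto freshly seeded loam/sand mix, postemergence application onto seedlings (1–4 leaves, 2–18 cm) in peat-vermiculite substrate. Responses scored visually 13 to 15 days later relative to controls, where 0 means no effect and 100 means complete control; a dash indicates no result.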

[2] = test system: foxtail, giant; assay: Test A preemergence; type: in vivo, Setaria faberii; settings: preemergence; for Foxtail, Giant plant response rating (0 to 100 scale): 125 g ai/ha, visual injury approx. 10 days after treatment; for Foxtail, Giant plant response rating: 500 g ai/ha, visual injury after approx. 10 days, 0 to 100 scale (0 no effect, 100 complete control)
In short: (§2)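 Seeds were sown in a loam soil–sand blend and given a directed soil spray preemergence; postemergence plants at 2–10 cm, one- to two-leaf stage, were sprayed with compound in non-phytotoxic solvent with surfactant. After about 10 days in a greenhouse, injury was visually rated against untreated controls (0 = no effect, 100 = complete control).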

[3] = test system: pigweed; assay: Test C preemergence; type: in vivo, Amaranthus retroflexus; settings: preemergence; for Plant response rating, Pigweed: 125 g ai/ha, scale 0 to 100, 0 = no effect, 100 = complete control
In short: as §1

[4] = test system: johnsongrass; assay: Test C preemergence; type: in vivo, Sorghum halepense; settings: preemergence; for Plant response rating, Johnsongrass: 125 g ai/ha, scale 0 to 100, 0 = no effect, 100 = complete control
In short: as §1

[5] = test system: pigweed; assay: Test A preemergence; type: in vivo, Amaranthus retroflexus; settings: preemergence; for Pigweed plant response rating (0 to 100 scale): 125 g ai/ha, visual injury approx. 10 days after treatment; for Pigweed plant response rating: 500 g ai/ha, visual injury after approx. 10 days, 0 to 100 scale (0 no effect, 100 complete control)
In short: as §2

[6] = test system: corn; assay: Test C preemergence; type: in vivo, Zea mays; settings: preemergence; for Plant response rating, Corn: 125 g ai/ha, scale 0 to 100, 0 = no effect, 100 = complete control
In short: as §1

[7] = test system: wheat; assay: Test A postemergence; type: in vivo, Triticum aestivum; settings: Postemergence
In short: as §2

[8] = test system: crabgrass, large; assay: Test C preemergence; type: in vivo, Digitaria sanguinalis; settings: preemergence; for Plant response rating, Crabgrass, Large: 125 g ai/ha, scale 0 to 100, 0 = no effect, 100 = complete control
In short: as §1

[9] = test system: waterhemp; assay: Test C preemergence; type: in vivo, Amaranthus rudis; settings: preemergence; for Plant response rating, Waterhemp: 125 g ai/ha, scale 0 to 100, 0 = no effect, 100 = complete control
In short: as §1

[10] = test system: morningglory; assay: Test C preemergence; type: in vivo, Ipomoea coccinea; settings: preemergence; for Plant response rating, Morningglory: 125 g ai/ha, scale 0 to 100, 0 = no effect, 100 = complete control
In short: as §1

[11] = test system: wheat; assay: Test C preemergence; type: in vivo, Triticum aestivum; settings: preemergence; for Plant response rating, Wheat: 125 g ai/ha, scale 0 to 100, 0 = no effect, 100 = complete control
In short: as §1

[12] = test system: barnyardgrass; assay: Test C preemergence; type: in vivo, Echinochloa crus-galli; settings: preemergence; for Plant response rating, Barnyardgrass: 125 g ai/ha, scale 0 to 100, 0 = no effect, 100 = complete control
In short: as §1

[13] = test system: corn; assay: Test A preemergence; type: in vivo, Zea mays; settings: preemergence; for Corn plant response rating (0 to 100 scale): 125 g ai/ha, visual injury approx. 10 days after treatment; for Corn plant response rating: 500 g ai/ha, visual injury after approx. 10 days, 0 to 100 scale (0 no effect, 100 complete control)
In short: as §2

[14] = 31 g ai/ha, visual rating, scale 0 to 100 (0 no effect, 100 complete control), 13 to 15 days
[15] = 62 g ai/ha, scale 0 to 100 (0 no effect, 100 complete control), 13 to 15 days
[16] = 250 g ai/ha, scale 0 to 100, 0 is no effect, 100 is complete control
[17] = 125 g ai/ha, 0 to 100 scale, 0 no effect, 100 complete control
[18] = 500 g ai/ha, 0 to 100 scale (0 no effect, 100 complete control)

SMILES: CCCc1cc(C(=O)NOCC)nn1Cc1ccnc(C(F)(F)F)c1 [Compound 185]
- Velvetleaf plant response rating [1, 14]: 20
- Velvetleaf plant response rating [1, 15]: 65
- Plant response rating, Velvetleaf ([1]; 13 to 15 days): 100
- Velvetleaf plant response rating [1, 16]: 98
- Foxtail, Giant plant response rating (0 to 100 scale) [2]: 100
- Foxtail, Giant plant response rating [2]: 100
- Pigweed plant response rating [3, 14]: 100
- Pigweed plant response rating [3, 15]: 100
- Plant response rating, Pigweed ([3]; 13 to 15 days): 100
- Pigweed plant response rating [3, 16]: 100
- Johnsongrass plant response rating [4, 14]: 5
- Johnsongrass plant response rating [4, 15]: 10
- Plant response rating, Johnsongrass ([4]; 13 to 15 days): 20
- Johnsongrass plant response rating [4, 16]: 60
- Pigweed plant response rating (0 to 100 scale) [5]: 0
- Pigweed plant response rating [5]: 0
- Corn plant response rating [6, 14]: 5
- Corn plant response rating [6, 15]: 25
- Plant response rating, Corn ([6]; 13 to 15 days): 45
- Corn plant response rating [6, 16]: 75
- Wheat plant response rating [7, 17]: 0
- Wheat plant response rating [7, 18]: 80
- Crabgrass, Large plant response rating [8, 14]: 80
- Crabgrass, Large plant response rating [8, 15]: 100
- Plant response rating, Crabgrass, Large ([8]; 13 to 15 days): 100
- Crabgrass, Large plant response rating [8, 16]: 100
- Waterhemp plant response rating [9, 14]: 100
- Waterhemp plant response rating [9, 15]: 100
- Plant response rating, Waterhemp ([9]; 13 to 15 days): 100
- Waterhemp plant response rating [9, 16]: 100
- Morningglory plant response rating [10, 14]: 15
- Morningglory plant response rating [10, 15]: 75
- Plant response rating, Morningglory ([10]; 13 to 15 days): 85
- Morningglory plant response rating [10, 16]: 98
- Wheat plant response rating [11, 14]: 0
- Wheat plant response rating [11, 15]: 60
- Plant response rating, Wheat ([11]; 13 to 15 days): 85
- Wheat plant response rating [11, 16]: 90
- Barnyardgrass plant response rating [12, 14]: 55
- Barnyardgrass plant response rating [12, 15]: 75
- Plant response rating, Barnyardgrass ([12]; 13 to 15 days): 98
- Barnyardgrass plant response rating [12, 16]: 100
- Corn plant response rating (0 to 100 scale) [13]: 10
- Corn plant response rating [13]: 30

SMILES: CCOc1cc(C(=O)NC(C)C)nn1Cc1ccnc(C(F)(F)F)c1 [Compound 188]
- Velvetleaf plant response rating [1, 14]: 100
- Velvetleaf plant response rating [1, 15]: 100
- Plant response rating, Velvetleaf ([1]; 13 to 15 days): 100
- Velvetleaf plant response rating [1, 16]: 100
- Foxtail, Giant plant response rating (0 to 100 scale) [2]: 100
- Foxtail, Giant plant response rating [2]: 100
- Pigweed plant response rating [3, 14]: 100
- Pigweed plant response rating [3, 15]: 100
- Plant response rating, Pigweed ([3]; 13 to 15 days): 100
- Pigweed plant response rating [3, 16]: 100
- Johnsongrass plant response rating [4, 14]: 80
- Johnsongrass plant response rating [4, 15]: 98
- Plant response rating, Johnsongrass ([4]; 13 to 15 days): 100
- Johnsongrass plant response rating [4, 16]: 100
- Pigweed plant response rating (0 to 100 scale) [5]: 100
- Pigweed plant response rating [5]: 100
- Corn plant response rating [6, 14]: 55
- Corn plant response rating [6, 15]: 85
- Plant response rating, Corn ([6]; 13 to 15 days): 98
- Corn plant response rating [6, 16]: 98
- Wheat plant response rating [7, 17]: 80
- Wheat plant response rating [7, 18]: 90
- Crabgrass, Large plant response rating [8, 14]: 100
- Crabgrass, Large plant response rating [8, 15]: 100
- Plant response rating, Crabgrass, Large ([8]; 13 to 15 days): 100
- Crabgrass, Large plant response rating [8, 16]: 100
- Waterhemp plant response rating [9, 14]: 100
- Waterhemp plant response rating [9, 15]: 100
- Plant response rating, Waterhemp ([9]; 13 to 15 days): 100
- Waterhemp plant response rating [9, 16]: 100
- Morningglory plant response rating [10, 14]: 98
- Morningglory plant response rating [10, 15]: 98
- Plant response rating, Morningglory ([10]; 13 to 15 days): 98
- Morningglory plant response rating [10, 16]: 100
- Wheat plant response rating [11, 14]: 85
- Wheat plant response rating [11, 15]: 90
- Plant response rating, Wheat ([11]; 13 to 15 days): 90
- Wheat plant response rating [11, 16]: 90
- Barnyardgrass plant response rating [12, 14]: 100
- Barnyardgrass plant response rating [12, 15]: 100
- Plant response rating, Barnyardgrass ([12]; 13 to 15 days): 100
- Barnyardgrass plant response rating [12, 16]: 100
- Corn plant response rating (0 to 100 scale) [13]: 100
- Corn plant response rating [13]: 100
